Experimental findings from patent US20240034761A1, “REGENERATION OF MAMMALIAN TISSUES USING SYNTHETIC IMMODULINS” (priority 2022, published 2024) are described below.

Sequences and labels used below:
B1: CSF1 (protein, UniProt P09603 33-554, looked up)
Macrophage colony-stimulating …: EEVSEYCSHMIGSGHLQSLQRLIDSQMETSCQITFEFVDQEQLKDPVCYLKKAFLLVQDIMEDTMRFRDNTPNAIAIVQLQELSLRLKSCFTKDYEEHDKACVRTFYETPLQLLEKVKNVFNETKNLLDKDWNIFSKNCNNSFAECSSQDVVTKPDCNCLYPKAIPSSDPASVSPHQPLAPSMAPVAGLTWEDSEGTEGSSLLPGEQPLHTVDPGSAKQRPPRSTCQSFEPPETPVVKDSTIGGSPQPRPSVGAFNPGMEDILDSAMGTNWVPEEASGEASEIPVPQGTELSPSRPGGGSMQTEPARPSNFLSASSPLPASAKGQQPADVTGTALPRVGPVRPTGQDWNHTPQKTDHPSALLRDPPEPGSPRISSLRPQGLSNPSTLSAQPQLSRSHSSGSVLPLGELEGRRSTRDRRSPAEPEGGPASEGAARPLPRFNSVPLTDTGHERQSEGSFSPQLQESVFHLLVPSVILVLLAVGGLLFYRWRRRSHQEPQRADSPLEQPEGSPLTQDDRQVELPV
notes: Growth factor class

Marks after values point to notes of the source that are not given here. Square brackets hold non-standard residues; d marks the D form. Ends that are not written are not given here. Peptide text beside a SMILES is read from it.

In one assay the test system is THP1-Dual monocyte reporter cell line. Put plainly: THP1-Dual myeloid cell differentiation assay (PMA protocol). It counts as cell-based, human. The note with it: PMA 24 h, then peptide 0.33 uM or 0.66 uM 24 h; relative to immX3AVD = 100. The method, then: (§1) Mammalian cell differentiation assays employed the THP1-Dual monocyte reporter cell line (Invivogen Inc, San Diego, CA) seeded at 2×10e5 cells per well in 96-well plates and cultured at 37 degrees C. in RPMI-1640 growth medium plus 10% fetal bovine serum and 1% penicillin/streptomycin. Cells were subsequently treated for 24 hours with 100 ng/ml Phorbol 12-myristate 13-acetate (PMA protocol; Cayman Chemical Company, Ann Arbor, MI). Peptide (0.33 uM or 0.66 uM, as indicated) was then added, and incubation continued for an additional 24 hours. Culture supernatants were assayed for CCL22. Plates with adherent cells were washed with PBS and assayed for immunoreactivity of surface markers such as CD169, Clec9a or Clec12a using fuorescent tag- or biotin-labeled anti-human antibodies purchased from Miltenyi Biotec (Auburn, CA) and the secondary detection reagent recommended by the manufacturer.
As for `CC(C)[C@H](NC(=O)[C@H](Cc1ccccc1)NC(=O)[C@H](Cc1c[nH]c2ccccc12)NC(=O)[C@H](CS)NC(=O)[C@H](Cc1ccccc1)NC(=O)CNC(=O)[C@H](CCCNC(=N)N)NC(=O)[C@H](CCCCN)NC(=O)[C@H](CCCNC(=N)N)NC(=O)CNC(=O)[C@H](CCCCN)NC(=O)[C@H](CO)NC(=O)[C@@H]1CCCN1C(=O)[C@H](CCCNC(=N)N)NC(=O)[C@H](CS)NC(=O)[C@H](CCC(N)=O)NC(=O)[C@H](CCCCN)NC(=O)[C@H](CCCCN)NC(=O)[C@H](CCCCN)NC(=O)[C@H](Cc1ccc(O)cc1)NC(=O)[C@H](Cc1ccccc1)NC(=O)CNC(=O)[C@H](CCCCN)NC(=O)[C@@H](N)CCCCN)C(=O)N[C@@H](CO)C(=O)O` [immX3FVS] (H-KKGFYKKKQCRPSKGRKRGFCWFVS-OH), the “CD169+ (AU)” value is on record as 109.4 ± 4.5 AU.

Take “KKGFYKKKQCRPSKGRKRGFCW(dA)VD (KKGFYKKKQCRPSKGRKRGFCW[dA]VD; cysteine pairing not given here) [immX3dAVD]”: the “CD169+ (AU)” value worked out at 104.3 ± 6.1 AU.

Staying with this assay, now noted: culture supernatant; PMA 24 h, then peptide 0.33 uM or 0.66 uM 24 h.
As to `CC(C)[C@H](NC(=O)[C@H](Cc1ccccc1)NC(=O)[C@H](Cc1c[nH]c2ccccc12)NC(=O)[C@H](CS)NC(=O)[C@H](Cc1ccccc1)NC(=O)CNC(=O)[C@H](CCCNC(=N)N)NC(=O)[C@H](CCCCN)NC(=O)[C@H](CCCNC(=N)N)NC(=O)CNC(=O)[C@H](CCCCN)NC(=O)[C@H](CO)NC(=O)[C@@H]1CCCN1C(=O)[C@H](CCCNC(=N)N)NC(=O)[C@H](CS)NC(=O)[C@H](CCC(N)=O)NC(=O)[C@H](CCCCN)NC(=O)[C@H](CCCCN)NC(=O)[C@H](CCCCN)NC(=O)[C@H](Cc1ccc(O)cc1)NC(=O)[C@H](Cc1ccccc1)NC(=O)CNC(=O)[C@H](CCCCN)NC(=O)[C@@H](N)CCCCN)C(=O)N[C@@H](CO)C(=O)O` [immX3FVS] (H-KKGFYKKKQCRPSKGRKRGFCWFVS-OH), the CCL22 came out at 251.3 ± 5.8 pg/mL.

“KKGFYKKKQCRPSKGRKRGFCW(dA)VD (KKGFYKKKQCRPSKGRKRGFCW[dA]VD; cysteine pairing not given here) [immX3dAVD]” displayed a CCL22 of 247.3 ± 16.1 pg/mL.

For another assay the test system is unchanged. Put plainly: Adjuvant effect of helper molecules on immX3 peptide potency in THP1-Dual assay. The assay is classed as cell-based, human. The note with it: immX3 peptide 330 nM plus helper at 0.1 ug/ml. The method, then: as §1
The THP1-Dual cell differentiation assay was carried out as described above in Example 2, using immX3 peptide (330 nM) in all samples plus the indicated helper or inhibitor molecule. Molecules were purched from Cayman Chemical Company (Ann Arbor, MI) or Sigma Chemical Company (St. Louis, MO). AU=arbitrary ELISA units. **p<0.01.
In the case of GM-CSF, the “CD169 (AU)” value is reported as 147.0 ± 15.3** AU. For B1, the “CD169 (AU)” value came to 108.0 ± 32.3 AU.

Still in this assay, the particulars now being: immX3 peptide 330 nM plus helper at 0.6 ug/ml.
As for Hyaluronan [Hyaluronan(HMW-HA)], the “CD169 (AU)” value is listed as 110.5 ± 10.2 AU.

Staying with this assay, now noted: immX3 peptide 330 nM plus helper at 0.8 ug/ml.
On to Holotransferrin [Holotransferrin (Tf)], for which the “CD169 (AU)” value was 126.8 ± 9.3** AU.

Still in this assay, the particulars now being: immX3 peptide 330 nM plus helper at 1 ug/ml.
With Leptin, the “CD169 (AU)” value is reported as 103.3 ± 11.6 AU.

On to Heparin, for which the “CD169 (AU)” value is 34.1 ± 2.9** AU.

Staying with this assay, now noted: immX3 peptide 330 nM plus helper at 2 uM.
Take `CN1c2ccc([N+](=O)[O-])cc2N=C(c2ccc(C(=O)O)cc2)c2cc3c(cc21)C(C)(C)CCC3(C)C` [HX531]: the “CD169 (AU)” value stood at 90.4 ± 6.2 AU. With `C=C(c1ccc(C(=O)O)cc1)c1cc2c(cc1C)C(C)(C)CCC2(C)C` [Bexarotene], the “CD169 (AU)” value worked out at 96.9 ± 6.8 AU.

For the molecule `O=C(O)CC1CC(c2ccccc2)=NO1` (stereo not drawn) [GIT27], the “CD169 (AU)” value is 166.5 ± 34.1** AU. Regarding `Sc1ncnc2nc[nH]c12` [6-mercaptopurine], the “CD169 (AU)” value was 104.9 ± 4.0 AU.

On to `CN1c2ccccc2N=C(c2ccc(C(=O)O)cc2)c2cc3c(cc21)C(C)(C)CCC3(C)C` [HX600], for which the “CD169 (AU)” value was 110.5 ± 19.0 AU.

Turning to `CN1C[C@H](C(=O)N[C@]2(C)O[C@@]3(O)[C@@H]4CCCN4C(=O)[C@H](Cc4ccccc4)N3C2=O)C[C@@H]2c3cccc4[nH]cc(c34)C[C@H]21` [Dihydroergotamine], the “CD169 (AU)” value is on record as 170.3 ± 20.7** AU. In the case of `Clc1ccc(C(c2c[nH]c3ccccc23)c2c[nH]c3ccccc23)cc1` [C-DIM12], the “CD169 (AU)” value is reported as 119.0 ± 3.7** AU. Still for that read-out and setting: the figure for `CCCCCCCC(=O)c1c(O)cc(O)cc1CC(=O)OCC` [Cytosporone B] is 120.3 ± 6.4** AU; for `O=C(NCc1ccco1)c1ccc2c(c1)N(Cc1c(F)cccc1Cl)C(=O)CS2` [Peptide G10, G10] it is 143.4 ± 17.8** AU.

With `Cc1cc2c(cc1C1(c3ccc(C(=O)O)cn3)CC1)C(C)(C)CCC2(C)C` [LG100268], the “CD169 (AU)” value is on record as 76.8 ± 11.9** AU. Still for that read-out and setting: the figure for `C=C1/C(=C\C=C2/CCC[C@]3(C)[C@@H]([C@H](C)CCCC(C)(C)O)CC[C@@H]23)C[C@@H](O)C[C@@H]1O` [Calcitriol] is 102.0 ± 11.3 AU; for `CC(=O)S[C@@H]1CC2=CC(=O)CC[C@]2(C)[C@H]2CC[C@@]3(C)[C@@H](CC[C@@]34CCC(=O)O4)[C@H]12` [Spironolactone] it is 120.1 ± 10.5** AU; for `C[C@H]1C[C@H]2[C@@H]3CCC4=CC(=O)C=C[C@]4(C)[C@@]3(F)[C@@H](O)C[C@]2(C)[C@@]1(O)C(=O)CCl` [Clobetasol] it is 98.5 ± 5.5 AU.

In the case of `O=C1CCc2cc(OCCCCc3nnnn3C3CCCCC3)ccc2N1` [Cilostazol], the “CD169 (AU)” value is listed as 99.4 ± 27.7 AU. On the same count and under the same terms, the figure for `Oc1ccc(C(c2c[nH]c3ccccc23)c2c[nH]c3ccccc23)cc1` [C-DIM8] is 91.0 ± 24.8 AU; for `CC(=O)/C=C1\C(=O)N(C)c2ccccc21` [Supercinnamaldehyde] it is 159.7 ± 16.6** AU.

Staying with this assay, now noted: immX3 peptide 330 nM plus helper at 15 uM.
Take `Nc1nc2c(ncn2[C@@H]2O[C@@H]3COP(=O)(O)O[C@H]4[C@@H](O)[C@H](n5cnc6c(=O)[nH]c(N)nc65)O[C@@H]4COP(=O)(O)O[C@H]3[C@H]2O)c(=O)[nH]1` [Cyclic-di-GMP]: the “CD169 (AU)” value is given as 142.9 ± 9.7** AU. Consider `Nc1nc2c(ncn2[C@@H]2O[C@@H]3COP(=O)(O)O[C@H]4[C@@H](O)[C@H](n5cnc6c(N)ncnc65)O[C@@H]4COP(=O)(O)O[C@@H]2[C@@H]3O)c(=O)[nH]1` [2′3′-cGAMP], for which the “CD169 (AU)” value was 168.5 ± 10.9** AU.

The same assay, now with this note: immX3 peptide 330 nM plus helper at 50 uM.
Regarding `O=C(CO)[C@@H](O)[C@@H](O)[C@H](O)[C@H](O)CO` [D-mannoheptulose], the “CD169 (AU)” value is reported as 140.8 ± 12.4** AU.

The assay is the same for the next values; noted with them: immX3 peptide 330 nM plus helper at 300 uM.
In the case of `C[C@H](O)C(=O)O` [L-lactate], the “CD169 (AU)” value was 121.1 ± 5.6** AU.

Still in this assay, the particulars now being: immX3 peptide 330 nM plus helper at 1 mM.
Consider `OC[C@H]1O[C@H](OC[C@H]2O[C@H](O[C@]3(CO)O[C@H](CO)[C@@H](O)[C@@H]3O)[C@H](O)[C@@H](O)[C@@H]2O)[C@H](O)[C@@H](O)[C@H]1O` [D-raffinose], for which the “CD169 (AU)” value is on record as 111.9 ± 4.0** AU.

As to `O=C(O)/C=C/C(=O)O` [L-fumarate], the “CD169 (AU)” value is on record as 101.5 ± 7.3 AU. Turning to HP-B-cyclodextrin, the “CD169 (AU)” value is reported as 121.1 ± 4.6** AU.
